{"source": "paper PMC2990605", "about": "(British Journal of Cancer, 2010)", "assay": "Adverse events (CTCAEv3.0), worst grade per patient regardless of relation, and laboratory parameters", "assay_type": "in vivo", "details": "human, in vivo", "experimental": "Toxicity was evaluated according to common toxicity criteria for adverse events (CTCAEv3.0). The MTD was defined as the dose level(s) at which at least two out of six patients developed DLT.\nToxicity assessment, haematology and clinical biochemistry were performed at baseline and weekly during the study. Physical and ECOG performance status were recorded at baseline and before the next cycle."}
{"smiles": "CC(C)C[C@@H](C(=O)N[C@H](C(=O)OC1CCCC1)c1ccccc1)[C@H](O)C(=O)NO", "note": "[tosedostat]", "values": [{"measurement": "Pollakiuria, patients with events, %", "result": 5, "unit": "%"}, {"measurement": "Pruritus, CTCAE grade 1, patients", "result": 5}, {"measurement": "Pruritus, CTCAE grade 2, patients", "result": 0}, {"measurement": "Pruritus, CTCAE grade 3, patients", "result": 1}, {"measurement": "Pruritus, CTCAE grade 4, patients", "result": 0}, {"measurement": "Pruritus, patients with events, %", "result": 27, "unit": "%"}, {"measurement": "Pulmonary embolism, CTCAE grade 1, patients", "result": 0}, {"measurement": "Pulmonary embolism, CTCAE grade 2, patients", "result": 0}, {"measurement": "Pulmonary embolism, CTCAE grade 4, patients", "result": 0}, {"measurement": "Pyrexia, CTCAE grade 1, patients", "result": 4}, {"measurement": "Pyrexia, CTCAE grade 2, patients", "result": 2}, {"measurement": "Pyrexia, CTCAE grade 3, patients", "result": 0}, {"measurement": "Pyrexia, CTCAE grade 4, patients", "result": 0}, {"measurement": "Pyrexia, patients with events, %", "result": 27, "unit": "%"}, {"measurement": "Rash, CTCAE grade 1, patients", "result": 9}, {"measurement": "Rash, CTCAE grade 2, patients", "result": 1}, {"measurement": "Rash, CTCAE grade 3, patients", "result": 2}, {"measurement": "Rash, CTCAE grade 4, patients", "result": 0}, {"measurement": "Rash, patients with events, %", "result": 55, "unit": "%"}, {"measurement": "Renal and urinary disorders, patients with events, %", "result": 23, "unit": "%"}, {"measurement": "Respiratory, thoracic and mediastinal disorders, patients with events, %", "result": 73, "unit": "%"}, {"measurement": "SAEs considered disease-related", "result": 13}, {"measurement": "SAEs reported, total number", "result": 19}, {"measurement": "Skin and subcutaneous tissue disorders, patients with events, %", "result": 100, "unit": "%"}, {"measurement": "Spinal cord compression, CTCAE grade 1, patients", "result": 0}, {"measurement": "Spinal cord compression, CTCAE grade 2, patients", "result": 0}, {"measurement": "Spinal cord compression, CTCAE grade 3, patients", "result": 1}, {"measurement": "Spinal cord compression, CTCAE grade 4, patients", "result": 0}, {"measurement": "Spinal cord compression, patients with events, %", "result": 5, "unit": "%"}, {"measurement": "Tumour pain, CTCAE grade 1, patients", "result": 0}, {"measurement": "Tumour pain, CTCAE grade 2, patients", "result": 1}, {"measurement": "Tumour pain, CTCAE grade 3, patients", "result": 2}, {"measurement": "Tumour pain, CTCAE grade 4, patients", "result": 0}, {"measurement": "Tumour pain, patients with events, %", "result": 14, "unit": "%"}, {"measurement": "Urinary tract infection, CTCAE grade 1, patients", "result": 0}, {"measurement": "Urinary tract infection, CTCAE grade 2, patients", "result": 1}, {"measurement": "Urinary tract infection, CTCAE grade 3, patients", "result": 1}, {"measurement": "Urinary tract infection, CTCAE grade 4, patients", "result": 0}, {"measurement": "Urinary tract infection, patients with events, %", "result": 9, "unit": "%"}, {"measurement": "Vomiting, CTCAE grade 1, patients", "result": 3}, {"measurement": "Vomiting, CTCAE grade 2, patients", "result": 2}, {"measurement": "Vomiting, CTCAE grade 3, patients", "result": 0}, {"measurement": "Vomiting, CTCAE grade 4, patients", "result": 0}, {"measurement": "Vomiting, patients with events, %", "result": 23, "unit": "%"}, {"measurement": "drug-related adverse event: alopecia", "result": 95, "unit": "%"}, {"measurement": "drug-related adverse event: fatigue", "result": 95, "unit": "%"}, {"measurement": "drug-related adverse event: peripheral sensory neuropathy", "result": 59, "unit": "%"}, {"measurement": "drug-related adverse event: rash", "result": 55, "unit": "%"}, {"measurement": "incidence and severity of neutropenia/leukopenia, anaemia, myalgia and nausea/vomiting", "result": "not increased relative to paclitaxel alone"}, {"measurement": "nadir of median haemoglobin, WBC, neutrophils and lymphocytes in each cycle", "result": 15, "unit": "days"}, {"measurement": "nadir of median platelets in each cycle", "result": 8, "unit": "days"}, {"measurement": "patients with SAEs", "result": 12}, {"measurement": "γ-glutamyltransferase increased, CTCAE grade 1, patients", "result": 0}, {"measurement": "γ-glutamyltransferase increased, CTCAE grade 2, patients", "result": 1}, {"measurement": "γ-glutamyltransferase increased, CTCAE grade 3, patients", "result": 1}, {"measurement": "γ-glutamyltransferase increased, CTCAE grade 4, patients", "result": 0}, {"measurement": "γ-glutamyltransferase increased, patients with events, %", "result": 9, "unit": "%"}, {"measurement": "Alanine aminotransferase increased, CTCAE grade 1, patients", "setting": "21 days", "result": 1}, {"measurement": "Alanine aminotransferase increased, CTCAE grade 2, patients", "setting": "21 days", "result": 2}, {"measurement": "Alanine aminotransferase increased, CTCAE grade 3, patients", "setting": "21 days", "result": 0}, {"measurement": "Alanine aminotransferase increased, CTCAE grade 4, patients", "setting": "21 days", "result": 0}, {"measurement": "Alanine aminotransferase increased, patients with events, %", "setting": "21 days", "result": 14, "unit": "%"}, {"measurement": "Alopecia, CTCAE grade 2, patients", "setting": "21 days", "result": 8}, {"measurement": "Alopecia, CTCAE grade 3, patients", "setting": "21 days", "result": 0}, {"measurement": "Alopecia, CTCAE grade 4, patients", "setting": "21 days", "result": 0}, {"measurement": "Alopecia, patients with events, %", "setting": "21 days", "result": 68, "unit": "%"}, {"measurement": "Anorexia, CTCAE grade 1, patients", "setting": "21 days", "result": 4}, {"measurement": "Anorexia, CTCAE grade 2, patients", "setting": "21 days", "result": 0}, {"measurement": "Anorexia, CTCAE grade 3, patients", "setting": "21 days", "result": 0}, {"measurement": "Anorexia, CTCAE grade 4, patients", "setting": "21 days", "result": 0}, {"measurement": "Anorexia, patients with events, %", "setting": "21 days", "result": 18, "unit": "%"}, {"measurement": "Arthralgia, CTCAE grade 1, patients", "setting": "21 days", "result": 5}, {"measurement": "Arthralgia, CTCAE grade 2, patients", "setting": "21 days", "result": 0}, {"measurement": "Arthralgia, CTCAE grade 3, patients", "setting": "21 days", "result": 0}, {"measurement": "Arthralgia, CTCAE grade 4, patients", "setting": "21 days", "result": 0}, {"measurement": "Arthralgia, patients with events, %", "setting": "21 days", "result": 23, "unit": "%"}, {"measurement": "Back pain, CTCAE grade 1, patients", "setting": "21 days", "result": 2}, {"measurement": "Back pain, CTCAE grade 2, patients", "setting": "21 days", "result": 0}, {"measurement": "Back pain, CTCAE grade 3, patients", "setting": "21 days", "result": 0}, {"measurement": "Back pain, CTCAE grade 4, patients", "setting": "21 days", "result": 0}, {"measurement": "Back pain, patients with events, %", "setting": "21 days", "result": 9, "unit": "%"}, {"measurement": "Blood bilirubin, CTCAE grade 1, patients", "setting": "21 days", "result": 0}, {"measurement": "Blood bilirubin, CTCAE grade 2, patients", "setting": "21 days", "result": 0}, {"measurement": "Blood bilirubin, CTCAE grade 3, patients", "setting": "21 days", "result": 0}, {"measurement": "Blood bilirubin, CTCAE grade 4, patients", "setting": "21 days", "result": 0}, {"measurement": "Blood bilirubin, patients with events, %", "setting": "21 days", "result": 0, "unit": "%"}, {"measurement": "Bronchitis, CTCAE grade 1, patients", "setting": "21 days", "result": 0}, {"measurement": "Bronchitis, CTCAE grade 2, patients", "setting": "21 days", "result": 0}, {"measurement": "Bronchitis, CTCAE grade 3, patients", "setting": "21 days", "result": 0}, {"measurement": "Bronchitis, CTCAE grade 4, patients", "setting": "21 days", "result": 0}, {"measurement": "Bronchitis, patients with events, %", "setting": "21 days", "result": 0, "unit": "%"}, {"measurement": "Constipation, CTCAE grade 1, patients", "setting": "21 days", "result": 3}, {"measurement": "Constipation, CTCAE grade 2, patients", "setting": "21 days", "result": 1}, {"measurement": "Constipation, CTCAE grade 3, patients", "setting": "21 days", "result": 0}, {"measurement": "Constipation, CTCAE grade 4, patients", "setting": "21 days", "result": 0}, {"measurement": "Constipation, patients with events, %", "setting": "21 days", "result": 18, "unit": "%"}, {"measurement": "Cough, CTCAE grade 1, patients", "setting": "21 days", "result": 5}, {"measurement": "Cough, CTCAE grade 2, patients", "setting": "21 days", "result": 0}, {"measurement": "Cough, CTCAE grade 3, patients", "setting": "21 days", "result": 0}, {"measurement": "Cough, CTCAE grade 4, patients", "setting": "21 days", "result": 0}, {"measurement": "Cough, patients with events, %", "setting": "21 days", "result": 23, "unit": "%"}, {"measurement": "Cystitis, CTCAE grade 1, patients", "setting": "21 days", "result": 0}, {"measurement": "Cystitis, CTCAE grade 2, patients", "setting": "21 days", "result": 0}, {"measurement": "Cystitis, CTCAE grade 3, patients", "setting": "21 days", "result": 0}, {"measurement": "Cystitis, CTCAE grade 4, patients", "setting": "21 days", "result": 0}, {"measurement": "Cystitis, patients with events, %", "setting": "21 days", "result": 0, "unit": "%"}, {"measurement": "Dehydration, CTCAE grade 1, patients", "setting": "21 days", "result": 0}, {"measurement": "Dehydration, CTCAE grade 2, patients", "setting": "21 days", "result": 0}, {"measurement": "Dehydration, CTCAE grade 3, patients", "setting": "21 days", "result": 1}, {"measurement": "Dehydration, CTCAE grade 4, patients", "setting": "21 days", "result": 0}, {"measurement": "Dehydration, patients with events, %", "setting": "21 days", "result": 5, "unit": "%"}, {"measurement": "Diabetes mellitus, CTCAE grade 1, patients", "setting": "21 days", "result": 0}, {"measurement": "Diabetes mellitus, CTCAE grade 2, patients", "setting": "21 days", "result": 0}, {"measurement": "Diabetes mellitus, CTCAE grade 3, patients", "setting": "21 days", "result": 1}, {"measurement": "Diabetes mellitus, CTCAE grade 4, patients", "setting": "21 days", "result": 0}, {"measurement": "Diabetes mellitus, patients with events, %", "setting": "21 days", "result": 5, "unit": "%"}, {"measurement": "Diarrhoea, CTCAE grade 1, patients", "setting": "21 days", "result": 2}, {"measurement": "Diarrhoea, CTCAE grade 2, patients", "setting": "21 days", "result": 0}, {"measurement": "Diarrhoea, CTCAE grade 3, patients", "setting": "21 days", "result": 0}, {"measurement": "Diarrhoea, CTCAE grade 4, patients", "setting": "21 days", "result": 0}, {"measurement": "Diarrhoea, patients with events, %", "setting": "21 days", "result": 9, "unit": "%"}, {"measurement": "Dizziness, CTCAE grade 1, patients", "setting": "21 days", "result": 4}, {"measurement": "Dizziness, CTCAE grade 2, patients", "setting": "21 days", "result": 1}, {"measurement": "Dizziness, CTCAE grade 3, patients", "setting": "21 days", "result": 0}, {"measurement": "Dizziness, CTCAE grade 4, patients", "setting": "21 days", "result": 0}, {"measurement": "Dizziness, patients with events, %", "setting": "21 days", "result": 23, "unit": "%"}, {"measurement": "Drug hypersensitivity, CTCAE grade 1, patients", "setting": "21 days", "result": 0}, {"measurement": "Drug hypersensitivity, CTCAE grade 2, patients", "setting": "21 days", "result": 0}, {"measurement": "Drug hypersensitivity, CTCAE grade 3, patients", "setting": "21 days", "result": 0}, {"measurement": "Drug hypersensitivity, CTCAE grade 4, patients", "setting": "21 days", "result": 0}, {"measurement": "Drug hypersensitivity, patients with events, %", "setting": "21 days", "result": 0, "unit": "%"}, {"measurement": "Dry skin, CTCAE grade 1, patients", "setting": "21 days", "result": 0}, {"measurement": "Dry skin, CTCAE grade 2, patients", "setting": "21 days", "result": 0}, {"measurement": "Dry skin, CTCAE grade 3, patients", "setting": "21 days", "result": 1}, {"measurement": "Dry skin, CTCAE grade 4, patients", "setting": "21 days", "result": 0}, {"measurement": "Dry skin, patients with events, %", "setting": "21 days", "result": 5, "unit": "%"}]}
